For orientation: EC50 means the concentration that produces a half-maximal response.

Structures are written as SMILES.

The target of one assay is T1, ABCC6 WT (Homo sapiens, UniProt O95255).
T1 construct: expressed in transfected cells; host or cells: HEK-293 (transient, Lipofectamine 2000)
The assay can be described thus: ABCC6 WT assay: HiBit protein expression. Type of assay: cell-based. The settings on record: HEK-293 cells transiently expressing HiBit-tagged ABCC6 WT; 24 h treatment; top concentration 20 μM; read-out: ABCC6 WT EC50, Emax. The text has this: To assess activity against ABCC6, compounds were screened in an assay measuring protein expression, using cells transfected with cDNA encoding HiBit-tagged ABCC6 wild-type.
Described here is an assay for measuring the expression of the wild type of human ABCC6 (henceforth referred to as ABCC6 WT) and the use of this assay to measure the efficacy of compounds to increase the expression of ABCC6 WT. The assay was designed to characterize the efficacy and potency of compounds to increase the expression of ABCC6 WT by calculating an Emax and EC50 value. HEK-293 cells transiently expressing ABCC6 WT (HEK-293/ACC6 WT) were used for this assay and were cultured at 37° C. (5% CO2, humidified) in Dulbecco's Modified Eagle Medium (DMEM, Gibco product #11965-092) supplemented with 10% fetal bovine serum. For the assay, HEK-293 cells were transfected with […]/10 cm plate of cDNA encoding HiBit-tagged ABCC6 wild-type using Lipofectamine 2000 (Thermo Fisher, product #11668019). Twenty-four hours after transfection, the HEK-293/ACC6 WT cells were seeded in white/opaque 384-well plates (PerkinElmer, cat. No. 6007688) at 10,000 cells/well in 20 μl growth medium and allowed to settle for 4 hours at 37° C. (5% CO2, humidified). Compound serial dilutions are prepared in growth medium as ten times (10×) the final concentration and using a dilution factor of 2. After the four-hour incubation period, 2.2 μL of the 10× dilutions are transferred to the assay plate.
Dose response curves include ten doses with the top final concentration at 20 μM in 0.15% DMSO. Liquid handling is performed with an Integra mini96-tip head (INTEGRA). After addition of compound treatment, cells are incubated for 24 hours at 37° C. (5% CO2, humidified). After the 24-hour treatment, plates are allowed to equilibrate for 15 minutes at room temperature. Using Integra mini-96, 20 μl of HiBit lytic assay reagent (Promega, product #N3040), which is prepared according to manufacturer's instructions, is added to each well. The plates are rotated at room temperature for 10 minutes and luminescent signal is acquired using an EnVision Multimode Plate Reader (PerkinElmer).
Results are presented below in Table 4 for ABCC6 WT.

The next assay deals with T2, ABCA4 P1380L (Homo sapiens, UniProt P78363, P1380L).
T2 construct: expressed in transfected cells
Description: A4 correction dose-response assay: ABCA4 P1380L HiBit protein expression. Type of assay: cell-based. The settings on record: HEK-293 cells stably expressing HiBit-tagged ABCA4 P1380L; 24 h treatment; top concentration 30 μM; read-out: ABCA4 P1380L EC50, Emax. The method, then:
Exemplary compounds were evaluated in an A4 correction dose-response assay.
To assess activity against ABCA4 P1380L, the compounds were screened in an assay measuring protein expression, using cells transfected with cDNA encoding HiBit-tagged ABCA4 P1380L. Here we describe an assay for measuring the expression of the P1380L variant of human ABCA4 (henceforth referred to as ABCA4 P1380L) and the use of this assay to measure the efficacy of compounds to increase the expression of ABCA4 P1380L. The assay was designed to characterize the efficacy and potency of compounds to increase the expression of ABCA4 P1380L by calculating an Emax and EC50 value. […] (5% CO2, humidified). […] After the four-hour incubation period, 60 nL of DMSO solutions are transferred to the assay plate.
Dose response curves include eleven doses with the top final concentration at 30 μM in 0.3% DMSO. Liquid handling is performed with ECHO 550 Acoustic Liquid Handler (Labcyte). After addition of compound treatment, cells are incubated for 24 hours at 37° C. (5% CO2, humidified). After the 24-hour treatment, plates are allowed to equilibrate to room temperature for 10 minutes. Using Dragonfly Automated Liquid Handler (TTP LabTech), 20 μl of HiBit lytic assay reagent (Promega, product #N3040), which is prepared according to manufacturer's instructions, is added to each well. The plates are rotated at room temperature for 2 minutes and incubated for 1 hour at 25° C. before luminescent signal is acquired using an EnVision Multimode Plate Reader (PerkinElmer).

T1 sequence (O95255 whole entry): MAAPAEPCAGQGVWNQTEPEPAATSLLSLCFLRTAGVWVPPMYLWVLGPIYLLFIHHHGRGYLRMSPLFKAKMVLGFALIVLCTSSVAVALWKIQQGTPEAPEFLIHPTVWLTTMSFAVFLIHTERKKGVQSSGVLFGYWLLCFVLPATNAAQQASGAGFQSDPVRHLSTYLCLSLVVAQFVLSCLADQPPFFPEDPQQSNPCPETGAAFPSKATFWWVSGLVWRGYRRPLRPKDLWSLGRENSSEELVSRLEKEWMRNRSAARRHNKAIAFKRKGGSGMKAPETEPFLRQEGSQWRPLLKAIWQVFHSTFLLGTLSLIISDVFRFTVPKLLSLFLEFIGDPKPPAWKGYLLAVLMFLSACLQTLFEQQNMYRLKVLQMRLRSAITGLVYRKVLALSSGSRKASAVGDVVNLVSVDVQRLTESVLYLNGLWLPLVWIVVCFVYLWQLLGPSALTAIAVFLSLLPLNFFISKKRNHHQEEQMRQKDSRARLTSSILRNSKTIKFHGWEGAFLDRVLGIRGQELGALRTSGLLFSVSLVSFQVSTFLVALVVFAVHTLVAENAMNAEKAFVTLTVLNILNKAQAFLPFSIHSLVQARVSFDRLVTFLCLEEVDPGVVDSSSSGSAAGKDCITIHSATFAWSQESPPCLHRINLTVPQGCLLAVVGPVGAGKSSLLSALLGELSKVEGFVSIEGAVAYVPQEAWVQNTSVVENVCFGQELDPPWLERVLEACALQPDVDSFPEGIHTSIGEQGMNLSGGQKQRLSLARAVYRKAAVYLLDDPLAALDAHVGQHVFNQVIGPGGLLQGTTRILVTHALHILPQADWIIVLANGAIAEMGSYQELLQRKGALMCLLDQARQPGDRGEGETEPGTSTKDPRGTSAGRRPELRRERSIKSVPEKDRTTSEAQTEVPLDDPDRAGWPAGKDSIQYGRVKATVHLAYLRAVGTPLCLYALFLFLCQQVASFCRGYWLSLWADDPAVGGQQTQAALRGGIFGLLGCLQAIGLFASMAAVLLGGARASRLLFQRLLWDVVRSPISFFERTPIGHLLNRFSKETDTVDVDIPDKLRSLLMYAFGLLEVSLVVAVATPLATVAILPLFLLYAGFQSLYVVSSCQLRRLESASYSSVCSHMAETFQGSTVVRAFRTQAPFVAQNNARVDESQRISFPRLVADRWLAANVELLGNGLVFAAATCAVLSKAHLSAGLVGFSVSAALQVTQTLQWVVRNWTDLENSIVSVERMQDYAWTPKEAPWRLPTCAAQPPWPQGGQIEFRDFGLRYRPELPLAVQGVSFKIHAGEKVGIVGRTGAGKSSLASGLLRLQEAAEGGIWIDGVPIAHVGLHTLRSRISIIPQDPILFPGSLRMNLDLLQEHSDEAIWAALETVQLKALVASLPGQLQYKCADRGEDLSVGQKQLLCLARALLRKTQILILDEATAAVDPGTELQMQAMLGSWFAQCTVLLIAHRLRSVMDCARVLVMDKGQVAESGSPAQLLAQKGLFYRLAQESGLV
T2 sequence (P78363 whole entry P1380L): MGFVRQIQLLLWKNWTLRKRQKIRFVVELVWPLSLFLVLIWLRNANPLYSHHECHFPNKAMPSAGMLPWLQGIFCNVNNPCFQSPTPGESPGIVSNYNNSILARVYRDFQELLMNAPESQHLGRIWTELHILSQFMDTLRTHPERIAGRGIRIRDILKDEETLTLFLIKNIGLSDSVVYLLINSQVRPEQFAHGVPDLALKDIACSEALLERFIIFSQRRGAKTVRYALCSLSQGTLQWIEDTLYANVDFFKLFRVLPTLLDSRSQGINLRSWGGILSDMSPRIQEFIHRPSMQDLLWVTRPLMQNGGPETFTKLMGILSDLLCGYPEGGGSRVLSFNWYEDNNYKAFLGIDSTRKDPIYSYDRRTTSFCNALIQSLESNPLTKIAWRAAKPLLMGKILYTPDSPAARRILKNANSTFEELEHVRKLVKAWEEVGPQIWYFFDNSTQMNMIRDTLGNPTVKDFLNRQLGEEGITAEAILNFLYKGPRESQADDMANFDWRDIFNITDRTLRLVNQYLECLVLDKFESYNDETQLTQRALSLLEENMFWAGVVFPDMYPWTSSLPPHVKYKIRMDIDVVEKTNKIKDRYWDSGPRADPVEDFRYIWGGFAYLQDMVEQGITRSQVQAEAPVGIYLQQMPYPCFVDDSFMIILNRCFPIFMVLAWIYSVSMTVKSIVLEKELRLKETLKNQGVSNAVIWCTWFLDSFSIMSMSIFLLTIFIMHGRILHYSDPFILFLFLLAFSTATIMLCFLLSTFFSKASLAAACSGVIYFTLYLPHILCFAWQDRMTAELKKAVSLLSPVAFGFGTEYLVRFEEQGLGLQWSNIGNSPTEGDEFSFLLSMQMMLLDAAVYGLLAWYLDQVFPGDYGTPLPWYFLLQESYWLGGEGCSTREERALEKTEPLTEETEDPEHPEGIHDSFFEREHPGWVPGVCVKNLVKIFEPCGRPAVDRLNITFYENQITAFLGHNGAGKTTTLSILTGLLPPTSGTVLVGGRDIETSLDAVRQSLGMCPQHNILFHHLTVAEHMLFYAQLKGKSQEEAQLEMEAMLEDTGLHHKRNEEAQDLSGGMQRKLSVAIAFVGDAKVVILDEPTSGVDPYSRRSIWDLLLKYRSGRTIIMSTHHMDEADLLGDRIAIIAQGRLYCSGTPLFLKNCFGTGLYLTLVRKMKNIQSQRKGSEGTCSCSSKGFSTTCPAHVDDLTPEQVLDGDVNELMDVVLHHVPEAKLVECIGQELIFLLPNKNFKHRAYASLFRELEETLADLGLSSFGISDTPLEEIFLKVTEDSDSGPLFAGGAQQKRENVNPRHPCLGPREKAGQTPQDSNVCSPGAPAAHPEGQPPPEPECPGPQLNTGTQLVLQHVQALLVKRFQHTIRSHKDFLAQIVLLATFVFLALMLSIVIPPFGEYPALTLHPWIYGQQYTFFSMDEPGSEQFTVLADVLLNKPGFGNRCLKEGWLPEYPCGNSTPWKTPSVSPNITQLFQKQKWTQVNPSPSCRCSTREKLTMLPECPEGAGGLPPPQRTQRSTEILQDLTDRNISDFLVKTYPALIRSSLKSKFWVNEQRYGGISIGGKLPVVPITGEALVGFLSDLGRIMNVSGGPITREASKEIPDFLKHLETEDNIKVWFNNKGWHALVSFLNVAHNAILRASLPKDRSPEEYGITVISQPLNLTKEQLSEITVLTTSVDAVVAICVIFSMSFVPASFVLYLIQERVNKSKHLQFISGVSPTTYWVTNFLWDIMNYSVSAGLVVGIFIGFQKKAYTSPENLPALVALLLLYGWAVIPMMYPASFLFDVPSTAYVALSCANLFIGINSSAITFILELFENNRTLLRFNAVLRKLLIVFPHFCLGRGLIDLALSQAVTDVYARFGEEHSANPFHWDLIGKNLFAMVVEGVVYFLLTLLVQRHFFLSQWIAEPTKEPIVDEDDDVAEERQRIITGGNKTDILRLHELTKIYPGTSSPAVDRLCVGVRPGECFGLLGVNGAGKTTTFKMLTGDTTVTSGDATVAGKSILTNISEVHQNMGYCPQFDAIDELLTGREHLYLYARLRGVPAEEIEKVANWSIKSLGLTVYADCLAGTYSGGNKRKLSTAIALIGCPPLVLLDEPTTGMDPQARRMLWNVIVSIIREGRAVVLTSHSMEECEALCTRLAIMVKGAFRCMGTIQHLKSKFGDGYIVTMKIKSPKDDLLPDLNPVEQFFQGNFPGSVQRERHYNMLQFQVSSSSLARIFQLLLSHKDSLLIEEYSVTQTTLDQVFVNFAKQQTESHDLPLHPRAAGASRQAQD

On to `Cc1cc(C(F)F)nc(C2CC2)c1Oc1nc(-c2cncc(C#N)c2)ccc1N(C)S(C)(=O)=O` [Compound I-135], for which the EC50 is 1000 to 10000 nM at ABCC6 WT and above 25000 nM at ABCA4 P1380L.

On to `Cc1cc(C)c(Oc2nc(-c3cncc(Cl)c3)ccc2S(=O)(=O)N2CCCC2)c(C)c1` [Compound I-96], for which the EC50 at ABCC6 WT was 1000 to 10000 nM; on ABCA4 P1380L, above 25000 nM.

As for `CNS(=O)(=O)c1ccc(-c2cncc(Cl)c2)nc1Oc1c(C)cc(C)cc1C` [Compound I-95], the EC50 at ABCC6 WT and on ABCA4 P1380L was below 1000 nM in each case.

For the compound `Cc1cc(C)c(Oc2nc(-c3cncc(C#N)c3)ncc2NS(C)(=O)=O)c(C)c1` [Compound I-10], the EC50 on ABCC6 WT and on ABCA4 P1380L was below 1000 nM throughout.

`Cc1nc(C(F)F)nc(C2CC2)c1Oc1nc(-c2cncc(C#N)c2)ccc1NS(C)(=O)=O` [Compound I-144]: the EC50 at ABCC6 WT and at ABCA4 P1380L was below 1000 nM throughout.

For the compound `Cc1cc(C)c(Oc2nc(-c3ccc(C#N)nc3C)ccc2NS(C)(=O)=O)c(C)c1` [Compound I-6], the EC50 on ABCC6 WT is below 1000 nM; at ABCA4 P1380L it was 10000 to 25000 nM.

Consider `CS(=O)(=O)Nc1ccc(-c2cncc(C#N)c2)nc1Oc1c(C2CC2)nc(C(F)(F)F)nc1C1CC1` [Compound I-138], for which the EC50 on ABCC6 WT and at ABCA4 P1380L was below 1000 nM in each case.

For `Cc1cc(C(F)F)nc(C2CC2)c1Oc1nc(-c2cncc(C#N)c2)ccc1NS(C)(=O)=O` [Compound I-137], the EC50 on ABCC6 WT and at ABCA4 P1380L was below 1000 nM in each case.

For `Cc1cc(C(F)(F)F)nc(C2CC2)c1Oc1nc(-c2cncc(C#N)c2)ccc1N=S(C)(C)=O` [Compound I-286], the figures for the EC50 at ABCC6 WT and on ABCA4 P1380L were below 1000 nM and above 25000 nM, respectively.

Regarding `Cc1cc(C(F)F)nc(C2CC2)c1Oc1nc(-c2cncc(C#N)c2)ccc1S(=O)(=O)NC1CC1` [Compound I-288], the EC50 was below 1000 nM on ABCC6 WT and 1000 to 10000 nM on ABCA4 P1380L.

In the case of `Cc1cc(C(F)(F)F)nc(C2CC2)c1Oc1nc(-c2cncc(C#N)c2)ccc1S(=O)(=O)NC1COC1` [Compound I-305], the EC50 at ABCC6 WT is below 1000 nM; on ABCA4 P1380L, above 25000 nM.

Take `Cc1cc(C)c(Oc2nc(-c3cccc(Cl)c3)ccc2S(N)(=O)=O)c(C)c1` [Compound I-102]: the EC50 is 1000 to 10000 nM at ABCC6 WT and below 1000 nM on ABCA4 P1380L.

Take `Cc1cc(C(F)(F)F)nc(C2CC2)c1Oc1nc(-c2cncc(C#N)c2)ccc1S(=O)(=O)NC1CCOCC1` [Compound I-306]: the figures for the EC50 at ABCC6 WT and on ABCA4 P1380L were below 1000 nM and below 25000 nM, respectively.

For the compound `Cc1nc(C2COC2)nc(C2CC2)c1Oc1nc(-c2cncc(C#N)c2)ccc1NS(C)(=O)=O` [Compound I-143], the EC50 at ABCC6 WT and at ABCA4 P1380L was below 1000 nM each time.

`Cc1cc(C(F)(F)F)nc(C2CC2)c1Oc1nc(-c2cncc(C#N)c2)ccc1S(=N)(=O)C1CCOCC1` (centres unmarked) [Compound I-301]: the EC50 was 1000 to 10000 nM at ABCC6 WT and below 25000 nM on ABCA4 P1380L.

With `Cc1nc(Oc2nc(-c3cncc(C#N)c3)ccc2NS(C)(=O)=O)c(C2CC2)s1` [Compound I-300], the EC50 on ABCC6 WT is below 1000 nM; at ABCA4 P1380L it was below 25000 nM.

Take `Cc1cc(C)[n+]([O-])c(C)c1Oc1nc(-c2cncc(C#N)c2)ccc1NS(C)(=O)=O` [Compound I-311]: the EC50 at ABCC6 WT and at ABCA4 P1380L was 1000 to 10000 nM in each case.

`Cc1cc(C(F)(F)F)nc(C2CC2)c1Oc1nc(-c2cncc(C#N)c2)ccc1NS(=O)(=O)C1CC1` [Compound I-140]: the EC50 on ABCC6 WT and at ABCA4 P1380L was below 1000 nM throughout.

Consider `CCS(=O)(=O)Nc1ccc(-c2cncc(C#N)c2)nc1Oc1c(C)cc(C(F)(F)F)nc1C1CC1` [Compound I-152], for which the EC50 on ABCC6 WT and on ABCA4 P1380L was below 1000 nM throughout.

On to `Cc1cc(C(F)(F)F)nc(C2CC2)c1Oc1nc(-c2cncc(C#N)c2)ccc1S(=N)(=O)c1cccnc1` (centres unmarked) [Compound I-304], for which the concentration for a half-maximal effect (EC50) on ABCC6 WT and at ABCA4 P1380L was 1000 to 10000 nM each time.

For the compound `Cc1nc(C(F)(F)F)nc(C2CC2)c1Oc1nc(-c2cncc(C#N)c2)ccc1S(=N)(=O)C1CC1` (centres unmarked) [Compound I-303], the values for the EC50 at ABCC6 WT and on ABCA4 P1380L were 1000 to 10000 nM and above 25000 nM, respectively.

Regarding `Cc1cc(C)c(Oc2nc(-c3cccc(C#N)c3)ccc2S(=N)(=O)C2CC2)c(C)n1` (centres unmarked) [Compound I-316], the EC50 at ABCC6 WT and at ABCA4 P1380L was 1000 to 10000 nM in each case.

Consider `CNS(=O)(=O)c1ccc(-c2cncc(C#N)c2)nc1Oc1c(C)nc(C(F)F)nc1C1CC1` [Compound I-313], for which the EC50 lay in the range of 1000 to 10000 nM on ABCC6 WT and 10000 to 25000 nM on ABCA4 P1380L.

Turning to `Cc1cc(C(F)(F)F)nc(C2CC2)c1Oc1nc(-c2cncc(C#N)c2)ccc1S(=N)(=O)C1CC1` (centres unmarked) [Compound I-287], the figures for the EC50 on ABCC6 WT and on ABCA4 P1380L were at least 25000 nM and above 25000 nM, respectively.

`Cc1nc(C(F)(F)F)cc(C2CC2)c1Oc1nc(-c2cncc(C#N)c2)ccc1N(C)S(C)(=O)=O` [Compound I-154]: the EC50 on ABCC6 WT and on ABCA4 P1380L was below 25000 nM each time.

Take `Cc1cc(C)c(Oc2nc(-c3cncc(Cl)c3)ccc2S(=O)(=O)NC(C)(C)C)c(C)c1` [Compound I-99]: the EC50 is 1000 to 10000 nM on ABCC6 WT and above 25000 nM on ABCA4 P1380L.

For the compound `Cc1cc(C(F)(F)F)nc(C2CC2)c1Oc1nc(-c2cncc(C#N)c2)ccc1S(=N)(=O)c1cnccn1` (centres unmarked) [Compound I-297], the EC50 at ABCC6 WT and on ABCA4 P1380L was 1000 to 10000 nM in each case.

In the case of `Cc1nc(C(F)(F)F)nc(C2CC2)c1Oc1nc(-c2cncc(C#N)c2)ccc1S(=O)(=O)NC1CC1` [Compound I-292], the half-maximal effective concentration (EC50) at ABCC6 WT was below 1000 nM; at ABCA4 P1380L it was 1000 to 10000 nM.

`Cc1cc(C)c(Oc2nc(-c3cccc(Cl)c3)ccc2S(=O)(=O)NC2CCOC2)c(C)c1` (centres unmarked) [Compound I-101]: the 50% effective concentration (EC50) at ABCC6 WT and at ABCA4 P1380L was 1000 to 10000 nM throughout.

Take `Cc1cc(C2CC2)nc(C)c1Oc1nc(-c2cncc(C#N)c2)ccc1NS(C)(=O)=O` [Compound I-4]: the EC50 at ABCC6 WT and on ABCA4 P1380L was below 1000 nM throughout.

Regarding `Cc1nc(C(F)(F)F)nc(C2CC2)c1Oc1nc(-c2cncc(C#N)c2)ccc1S(=O)(=O)Nc1cccnc1` [Compound I-310], the EC50 is below 1000 nM on ABCC6 WT and above 25000 nM at ABCA4 P1380L.

Regarding `Cc1cc(C(F)(F)F)nc(C2CC2)c1Oc1nc(-c2cncc(C#N)c2)ccc1S(=O)(=O)N(C)C` [Compound I-291], the EC50 on ABCC6 WT is 1000 to 10000 nM; on ABCA4 P1380L it was below 25000 nM.

Consider `Cc1nc(C(F)F)nc(C2CC2)c1Oc1nc(-c2cncc(C#N)c2)ccc1S(=O)(=O)NC1CC1` [Compound I-314], for which the EC50 at ABCC6 WT is at least 25000 nM; at ABCA4 P1380L, above 25000 nM.

`Cc1cc(C(F)(F)F)nc(C2CC2)c1Oc1nc(-c2cncc(C#N)c2)ccc1NS(C)(=O)=O` [Compound I-163]: the EC50 was below 1000 nM at ABCC6 WT and below 25000 nM at ABCA4 P1380L.

As for `Cc1nc(C(F)(F)F)nc(C2CC2)c1Oc1nc(-c2cncc(Cl)c2)ccc1NS(C)(=O)=O` [Compound I-151], the EC50 on ABCC6 WT and at ABCA4 P1380L was below 1000 nM throughout.

Regarding `Cc1cc(C)c(Oc2nc(-c3cncc(Cl)c3)ccc2S(=O)(=O)N(C)C)c(C)c1` [Compound I-97], the EC50 on ABCC6 WT is below 1000 nM; at ABCA4 P1380L, above 25000 nM.

`CNS(=O)(=O)c1ccc(-c2cncc(C#N)c2)nc1Oc1c(C)cc(C(F)(F)F)nc1C1CC1` [Compound I-293]: the EC50 at ABCC6 WT is 1000 to 10000 nM; at ABCA4 P1380L, below 25000 nM.

These data come from US20250228835A1, “PYRIDINYLOXYPYRIDINES AND RELATED COMPOUNDS AND THEIR USE IN TREATING MEDICAL CONDITIONS” (Rectify Pharmaceuticals, Inc., priority 2024, published 2025).
